Source: publication PMC10747733, “N-Substituted 2-(Benzenosulfonyl)-1-Carbotioamide Derivatives Exert Antimicrobial and Cytotoxic Effects via Aldehyde Dehydrogenase Pathway: Synthesis, In Silico and In Vitro Studies” (Pharmaceuticals, 2023)
≈ marks a conversion by molar mass, not a printed value.

Experiments:
Assay type in all cases: cell-based
[1] = tested on: Candida albicans ATCC 10231; assay: Broth microdilution antimicrobial activity
Source text: (§1) Reference strains of microorganisms that came from American Type Culture Collection (ATCC) (Manassas, VA, USA) were used for this study. The representative Gram-positive bacteria were as follows: Staphylococcus aureus ATCC 25923, Staphylococcus aureus ATCC 29213, Staphylococcus aureus ATCC 43300, Staphylococcus epidermidis ATCC 12228, Enterococcus faecalis ATCC 29212, Micrococcus luteus ATCC 10240, Bacillus subtilis ATCC 6633 and Bacillus cereus ATCC 10876. While, those of Gram-negative bacteria were as follows: Bordetella bronchiseptica ATCC 4617, Escherichia coli ATCC 25922, Klebsiella pneumoniae ATCC 13883, Proteus mirabilis ATCC 12453, Salmonella Typhimurium ATCC 14028 and Pseudomonas aeruginosa ATCC 9027. Moreover, the following fungi belonging to yeasts were used: Candida albicans ATCC 10231, Candida albicans ATCC 2091, Candida parapsilosis ATCC 22019, Candida glabrata ATCC 90030 and Candida krusei ATCC 14243.
(§2) The new compounds WZ1–WZ4 were assayed for both antibacterial and antifungal activity using the broth microdilution method in accordance with the European Committee on Antimicrobial Susceptibility Testing (EUCAST) and Clinical and Laboratory Standards Institute (CLSI) guidelines. The microorganisms were grown at 35 °C for 18–24 h on appropriate media (nutrient agar and Sabouraud for bacteria and fungi, respectively) (BioMaxima S.A., Lublin, Poland). Next, microbial suspensions with an optical density of 0.5 McFarland standard scale (in sterile 0.85% NaCl) were prepared. In turn, the tested compounds were initially diluted at 50 mg/mL in dimethyl sulfoxide (DMSO) and the broth microdilution method was used to assess their minimum inhibitory concentrations (MICs). For these studies, selective broth Mueller-Hinton (MH) (BioMaxima S.A., Lublin, Poland) and RPMI (Roswell Park Memorial Institute) 1640 with MOPS (3-(N-Morpholino)propanesulfonic acid) (Sigma-Aldrich Chemicals, St. Louis, MO, USA) were used for bacteria and fungi, respectively. The antimicrobial effect of compounds WZ1–WZ4 was determined in the concentration range from 2000 to 0.98 µg/mL.
(§3) Then, the microbial suspensions were introduced into each well of the microplate and incubated for 18–24 h at 35 °C. […] The reference drugs ciprofloxacin or vancomycin (against bacteria) and nystatin (against fungi) (Sigma-Aldrich Chemicals, St. Louis, MO, USA) were also used. Next, the values of the minimum bactericidal concentration (MBC) and minimum fungicidal concentration (MFC) of WZ1–WZ4 were assessed. For this purpose, the cultures from each MIC determination well were transferred to a suitable solid medium and incubated under appropriate conditions. The lowest concentrations of compounds without microbial growth were read as MBC or MFC. The studies were performed in triplicate and representative data were gathered.
(§4) In turn, the MBC/MIC or MFC/MIC ratios were used to assess bactericidal/fungicidal (MBC/MIC or MFC/MIC ≤ 4) and bacteriostatic/fungistatic (MBC/MIC or MFC/MIC > 4) effect of these compounds [93].

[2] = tested on: Candida parapsilosis ATCC 22019; assay: Broth microdilution antimicrobial activity
Source text: as §1, §2, §3, §4

[3] = tested on: Candida glabrata ATCC 90030; assay: Broth microdilution antimicrobial activity
Source text: as §1, §2, §3, §4

[4] = tested on: Candida albicans ATCC 2091; assay: Broth microdilution antimicrobial activity
Source text: as §1, §2, §3, §4

[5] = tested on: Candida krusei ATCC 14243; assay: Broth microdilution antimicrobial activity
Source text: as §1, §2, §3, §4

[6] = tested on: Erythrocytes from fresh sheep blood; assay: in vitro
Experimental: The toxicity of WZ1–WZ4 compounds towards red blood cells was tested using the erythrocyte lysis assay (ELA). Erythrocytes from fresh sheep blood (BioMaxima S.A., Poland) were centrifuged and washed with 0.85% NaCl. Next, 100 μL of a 2% suspension of red blood cells in physiological saline was added to the wells of microtiter plate. The double dilutions of compounds WZ1–WZ4 were prepared in the range of 2000–15.62 μg/mL. Appropriate controls were used to assess the hemolytic potential of tested compounds, i.e., 100% lysis of erythrocytes using 4% Triton X-100 (Pol-Aura, Różnowo, Poland) and 0% lysis in saline solution. Next, all sample plates were incubated (1 h at 37 °C), centrifuged for 10 min to separate unlysed red blood cells, and the supernatant was placed in a new plate. The ELA is a biological test by which the lytic response can be measured spectrophotometrically (at a wavelength of 450 nm) by the amount of hemoglobin released. The hemolysis percentage was calculated according to the following equation:(1) % Hemolysis = A450 of test compound treated sample − A450 of buffer treated sample/A450 of 4% Triton X100 treated samples − A450 of buffer treated sample × 100

[7] = tested on: Enterococcus faecalis ATCC 29212; assay: Broth microdilution antimicrobial activity; details: Enterococcus faecalis ATCC 29212
Source text: as §1, §2, §3, §4

[8] = tested on: Salmonella Typhimurium ATCC 14028; assay: Broth microdilution antimicrobial activity
Source text: as §1, §2, §3, §4

[9] = tested on: Bordetella bronchiseptica ATCC 4617; assay: Broth microdilution antimicrobial activity
Source text: as §1, §2, §3, §4

[10] = tested on: Pseudomonas aeruginosa ATCC 9027; assay: Broth microdilution antimicrobial activity
Source text: as §1, §2, §3, §4

[11] = tested on: Bacillus subtilis ATCC 6633; assay: Broth microdilution antimicrobial activity
Source text: as §1, §2, §3, §4

[12] = tested on: Klebsiella pneumoniae ATCC 13883; assay: Broth microdilution antimicrobial activity
Source text: as §1, §2, §3, §4

[13] = tested on: Staphylococcus aureus ATCC 29213; assay: Broth microdilution antimicrobial activity; details: Staphylococcus aureus ATCC 29213
Source text: as §1, §2, §3, §4

[14] = tested on: Bacillus cereus ATCC 10876; assay: Broth microdilution antimicrobial activity
Source text: as §1, §2, §3, §4

[15] = tested on: Escherichia coli ATCC 25922; assay: Broth microdilution antimicrobial activity
Source text: as §1, §2, §3, §4

[16] = tested on: Staphylococcus aureus ATCC 43300; assay: Broth microdilution antimicrobial activity; details: Staphylococcus aureus ATCC 43300
Source text: as §1, §2, §3, §4

[17] = tested on: Proteus mirabilis ATCC 12453; assay: Broth microdilution antimicrobial activity
Source text: as §1, §2, §3, §4

[18] = tested on: Staphylococcus epidermidis ATCC 12228; assay: Broth microdilution antimicrobial activity
Source text: as §1, §2, §3, §4

[19] = tested on: Micrococcus luteus ATCC 10240; assay: Broth microdilution antimicrobial activity
Source text: as §1, §2, §3, §4

[20] = tested on: Staphylococcus aureus ATCC 25923; assay: Broth microdilution antimicrobial activity
Source text: as §1, §2, §3, §4

Work on `C[C@@H]1[C@H](O)[C@@H](C)/C=C/C=C/CC/C=C/C=C/C=C/C=C/C(O[C@H]2O[C@H](C)[C@@H](O)[C@H](N)[C@@H]2O)CC2O[C@](O)(CC(O)C(O)CCC(O)CC(O)CC(O)CC(=O)O[C@H]1C)CC(O)C2C(=O)O` (stereo partly shown) [NY, nystatin, reference compound] yielded an MFC [1] of 0.48 µg/mL (≈ 0.518 µM), an MFC/MIC [1] of 1 and an MIC [1] of 0.48 µg/mL (≈ 0.518 µM). It also gave an MFC [2] of 0.48 µg/mL (≈ 0.518 µM), an MFC/MIC [2] of 2 and an MIC [2] of 0.24 µg/mL (≈ 0.259 µM). It also gave an MFC [3] of 0.48 µg/mL (≈ 0.518 µM), an MFC/MIC [3] of 2 and an MIC [3] of 0.24 µg/mL (≈ 0.259 µM). It also gave an MFC [4] of 0.24 µg/mL (≈ 0.259 µM), an MFC/MIC [4] of 1 and an MIC [4] of 0.24 µg/mL (≈ 0.259 µM). For the same compound, the MFC [5] was 0.24 µg/mL (≈ 0.259 µM), the MFC/MIC [5] was 1 and the MIC [5] was 0.24 µg/mL (≈ 0.259 µM).
Compound Triton X-100 [reference compound] has an erythrocyte lysis [6] of 100%.
With `CN[C@H](CC(C)C)C(=O)N[C@H]1C(=O)N[C@@H](CC(N)=O)C(=O)N[C@H]2C(=O)N[C@H]3C(=O)N[C@H](C(=O)N[C@H](C(=O)O)c4cc(O)cc(O)c4-c4cc3ccc4O)[C@H](O)c3ccc(c(Cl)c3)Oc3cc2cc(c3O[C@@H]2O[C@H](CO)[C@@H](O)[C@H](O)[C@H]2O[C@H]2C[C@](C)(N)[C@H](O)[C@H](C)O2)Oc2ccc(cc2Cl)[C@H]1O` [VA, vancomycin, reference compound] the MBC [7] was 1.95 µg/mL (≈ 1.35 µM), the MBC/MIC [7] was 2 and the MIC [7] was 0.98 µg/mL (≈ 0.676 µM).
`O=C(O)c1cn(C2CC2)c2cc(N3CCNCC3)c(F)cc2c1=O` [CIP, ciprofloxacin, reference compound] showed an MBC/MIC [8] of 1, an MBC ([8]; Salmonella enterica) of 0.06 µg/mL (≈ 0.181 µM) and an MIC ([8]; Salmonella enterica) of 0.06 µg/mL (≈ 0.181 µM). For the same compound, the MBC/MIC [9] was 1, the MBC ([9]; ATCC4617) was 0.98 µg/mL (≈ 2.96 µM) and the MIC ([9]; ATCC4617) was 0.98 µg/mL (≈ 2.96 µM). For the same compound, the MBC/MIC [10] was 2, the MBC ([10]; ATCC9027) was 0.98 µg/mL (≈ 2.96 µM) and the MIC ([10]; ATCC9027) was 0.48 µg/mL (≈ 1.45 µM). The MBC/MIC [11] was 1, the MBC ([11]; ATCC6633) was 0.03 µg/mL (≈ 0.0905 µM) and the MIC ([11]; ATCC6633) was 0.03 µg/mL (≈ 0.0905 µM). The MBC/MIC [12] was 2, the MBC ([12]; ATCC13883) was 0.24 µg/mL (≈ 0.724 µM) and the MIC ([12]; ATCC13883) was 0.12 µg/mL (≈ 0.362 µM). For the same compound, the MBC ([13]; ATCC29213) was 0.48 µg/mL (≈ 1.45 µM), the MIC ([13]; ATCC29213) was 0.48 µg/mL (≈ 1.45 µM) and the MBC/MIC [13] was 1. For the same compound, the MBC/MIC [14] was 2, the MBC ([14]; ATCC10876) was 0.12 µg/mL (≈ 0.362 µM) and the MIC ([14]; ATCC10876) was 0.06 µg/mL (≈ 0.181 µM). The MBC/MIC [15] was 2, the MBC ([15]; ATCC25922) was 8 ng/mL (≈ 0.0241 µM) and the MIC ([15]; ATCC25922) was 4 ng/mL (≈ 0.0121 µM). It also gave an MBC ([16]; ATCC43300) of 0.24 µg/mL (≈ 0.724 µM), an MIC ([16]; ATCC43300) of 0.24 µg/mL (≈ 0.724 µM) and an MBC/MIC [16] of 1. It also gave an MBC/MIC [17] of 1, an MBC ([17]; ATCC12453) of 0.03 µg/mL (≈ 0.0905 µM) and an MIC ([17]; ATCC12453) of 0.03 µg/mL (≈ 0.0905 µM). It also gave an MBC/MIC [18] of 1, an MBC ([18]; ATCC12228) of 0.12 µg/mL (≈ 0.362 µM) and an MIC ([18]; ATCC12228) of 0.12 µg/mL (≈ 0.362 µM). The MBC/MIC [19] was 2, the MBC ([19]; ATCC10240) was 1.95 µg/mL (≈ 5.89 µM) and the MIC ([19]; ATCC10240) was 0.98 µg/mL (≈ 2.96 µM). For the same compound, the MBC/MIC [20] was 1, the MBC ([20]; ATCC25923) was 0.48 µg/mL (≈ 1.45 µM) and the MIC ([20]; ATCC25923) was 0.48 µg/mL (≈ 1.45 µM).
